Series [1] has as its system nociception (tail-flick). Nature of the series: Tail-flick test after intracerebroventricular administration. It counts as in vivo. The following applies: rat tail-flick. In general terms: In hot-plate and tail-flick tests a longer latency is read as antinociception.
Series [2] relates to nociception (tail-flick). Nature of the series: Tail-flick test after subcutaneous administration. The conditions noted are these: rat tail-flick, sc; for analgesic activity in words / duration of maximal analgesic effect: dose equimolar to 5 mg/kg morphine.
The test system of series [3] is electrically stimulated guinea pig ileum. Put plainly: tissue or blood. It counts as cell-based. The following applies: for IC50: Cavia porcellus, read-out: Guinea Pig Ileum IC50 (nM).
The subject of series [4] is electrically stimulated mouse vas deferens. Nature of the series: tissue or blood. Type of series: cell-based.
The target in a further series is mu opioid receptors (Cavia porcellus, UniProt A0ACM8Q262). It counts as binding, guinea pig.
mu opioid receptors, sequence (A0ACM8Q262 1-400): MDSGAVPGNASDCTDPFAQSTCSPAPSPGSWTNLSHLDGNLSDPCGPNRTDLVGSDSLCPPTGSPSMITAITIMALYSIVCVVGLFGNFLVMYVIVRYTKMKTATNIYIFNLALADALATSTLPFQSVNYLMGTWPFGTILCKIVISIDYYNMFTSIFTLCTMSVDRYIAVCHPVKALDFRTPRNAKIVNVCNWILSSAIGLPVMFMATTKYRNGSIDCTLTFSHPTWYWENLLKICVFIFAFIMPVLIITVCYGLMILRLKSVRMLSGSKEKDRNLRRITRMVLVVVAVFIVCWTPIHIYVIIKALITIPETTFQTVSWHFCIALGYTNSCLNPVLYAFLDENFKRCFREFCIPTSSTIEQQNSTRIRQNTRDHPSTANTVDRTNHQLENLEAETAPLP
The next series relates to mu receptors. Type of series: cell-based, guinea pig.
Another series concerns κ2 sites. It counts as binding, guinea pig.
The target in another series is T1, kappa1 sites (Cavia porcellus, UniProt P41144).
T1 construct: The brains were then homogenized in 50 mM Tris HCl, buffer pH 7.7, using a Polytron; from tissue; host or cells: guinea pig brain homogenate (membrane pellet)
T1 sequence (P41144 whole entry): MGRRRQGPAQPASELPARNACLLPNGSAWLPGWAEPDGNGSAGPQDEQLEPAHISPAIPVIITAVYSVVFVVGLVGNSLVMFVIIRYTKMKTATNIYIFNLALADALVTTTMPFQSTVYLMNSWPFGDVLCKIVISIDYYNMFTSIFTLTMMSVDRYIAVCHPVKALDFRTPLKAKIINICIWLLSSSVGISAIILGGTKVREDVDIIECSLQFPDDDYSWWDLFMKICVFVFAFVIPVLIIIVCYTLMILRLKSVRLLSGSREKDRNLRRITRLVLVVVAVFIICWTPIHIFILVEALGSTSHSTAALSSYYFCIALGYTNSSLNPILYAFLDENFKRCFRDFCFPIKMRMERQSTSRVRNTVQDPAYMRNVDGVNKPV
Nature of the series: biochemical. It counts as binding, guinea pig.

A further series concerns the target T2, kappa receptors (Cavia porcellus, UniProt P41144).
T2 construct: The longitudinal muscle with the myenteric plexus attached was gently separated from the underlying circular muscle; from tissue; host or cells: guinea pig ileum longitudinal muscle with myenteric plexus
It counts as cell-based, guinea pig.

For the next series, the target named is T3, delta receptors (Cavia porcellus, UniProt A0A286XTF2).
T3 construct: The brains were then homogenized in 50 mM Tris HCl, buffer pH 7.7, using a Polytron; from tissue; host or cells: guinea pig brain homogenate (membrane pellet)
T3 sequence (A0A286XTF2 1-366): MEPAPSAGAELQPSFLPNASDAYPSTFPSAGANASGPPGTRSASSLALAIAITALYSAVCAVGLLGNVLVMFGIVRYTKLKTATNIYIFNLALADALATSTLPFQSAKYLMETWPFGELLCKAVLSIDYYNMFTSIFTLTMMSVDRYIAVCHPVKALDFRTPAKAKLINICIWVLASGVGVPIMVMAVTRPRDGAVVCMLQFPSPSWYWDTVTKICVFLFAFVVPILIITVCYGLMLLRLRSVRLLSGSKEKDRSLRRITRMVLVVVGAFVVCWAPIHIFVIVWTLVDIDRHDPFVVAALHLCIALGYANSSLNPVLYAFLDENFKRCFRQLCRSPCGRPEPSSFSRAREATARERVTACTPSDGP
Put plainly: biochemical. Type of series: binding, guinea pig.

In series [5] the test system is morphine withdrawal signs. Put plainly: Single dose substitution and precipitated morphine withdrawal in morphine dependent Rhesus monkeys. The conditions noted are these: sc, M3A6S 2.5 and 10.0 mg/kg, DM3A6S 3.0, 12.0 and […].
A further series relates to kappa3 receptors. Type of series: binding, guinea pig. The conditions noted are these: for Ki: read-out: Ki κ3 [^3H]NalBzoH.
For another series, the target named is T4, δ opioid receptor (Mus musculus, UniProt P32300).
T4 construct: from tissue; host or cells: organ-bath tissue, probably mouse vas deferens
T4 sequence (P32300 whole entry): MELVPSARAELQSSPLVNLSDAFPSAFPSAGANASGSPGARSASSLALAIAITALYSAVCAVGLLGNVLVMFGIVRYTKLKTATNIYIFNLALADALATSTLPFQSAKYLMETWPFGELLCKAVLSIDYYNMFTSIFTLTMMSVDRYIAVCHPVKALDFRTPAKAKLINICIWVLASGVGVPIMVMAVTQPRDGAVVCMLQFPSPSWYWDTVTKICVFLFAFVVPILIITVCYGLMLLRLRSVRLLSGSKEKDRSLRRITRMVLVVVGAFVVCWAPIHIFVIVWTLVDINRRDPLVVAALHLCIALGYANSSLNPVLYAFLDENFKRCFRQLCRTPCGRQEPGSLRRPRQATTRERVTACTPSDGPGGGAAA
Nature of the series: Antagonist activity (pA2) at δ in the functional assays. Type of series: cell-based.

For another series, the target named is T5, κ opioid receptor (Cavia porcellus, UniProt P41144).
T5 construct: from tissue; host or cells: organ-bath tissue, probably guinea pig ileum
T5 sequence (P41144 whole entry): as the sequence (P41144 whole entry) above
Put plainly: Antagonist activity (pA2) at κ in the functional assays. Type of series: cell-based.

The mark [6] stands for this setting: Mus musculus, read-out: Mouse vas deferens maximum inhibition.
The mark [7] stands for this setting: icv, molar dose equivalent to the lower dose of morphine.

“Also recorded” adds a separate entry of the source.

T2 sequence (P41144 whole entry): as above

In the case of `CN1CC[C@]23c4c5ccc(O)c4O[C@H]2[C@@H](O)C=C[C@H]3[C@H]1C5` [Morphine, morphine], in the series with nociception (tail-flick) [1] (higher dose 23.6 μg/4 μl/rat), the “onset of analgesic response after icv injection” value worked out at 6 min.
A word on the IC50: it is the point on the concentration scale where inhibition reaches its midpoint. By inhibition is commonly meant the share of the control response that was lost under treatment. A word on the Ki: it is a dissociation constant, usually derived from enzyme kinetics or from competition with a known ligand. With `CC(=O)Oc1ccc2c3c1O[C@H]1[C@@H](OS(=O)(=O)O)C=C[C@H]4[C@@H](C2)N(C)CC[C@@]341` [NIDA # 20,264, 3-O-Acetylmorphine-6-O-sulfate], in the series with nociception (tail-flick) [2], the “analgesic activity in words” value was “analgesic profile similar to that of M6S” and the “duration of maximal analgesic effect” value is 4 h. Besides, in [3], the “Guinea pig ileum, result in words” value was “inhibited electrically induced twitches” and the IC50 is 25.9 ± 5.3 nM. In addition, the inhibition at 200 µM in [4] (setting [6]) was 30%. In the series on nociception (tail-flick) [1] (setting [7]), the “duration of maximal analgesia” value worked out at 90 min and the “time to maximal analgesic effect” value amounted to 10 min. Also, at mu opioid receptors, the “Ki mu/Ki delta” value is given as 0.0026; the “affinity to mu receptors in words” value is reported as “greater affinity than that of morphine”; the “selectivity for mu-receptors, greater than morphine” value is 3 fold. For the same molecule, in the series on mu receptors, the “Guinea Pig Ileum DR with CTAP” value was determined as 5.40 ± 0.18, the “Guinea Pig Ileum Ke of CTAP” value came out at 22.73 ± 0.91 and the “Guinea Pig Ileum Ratio (CTAP)” value is on record as 0.851. The IC50 in the series with κ2 sites was greater than 10 µM. Also, on kappa1 sites, the affinity corresponds to a Ki of 1160 nM and the “binding to kappa1 sites in words” value is reported as “weakly”. For the same molecule, at kappa receptors, the “Guinea Pig Ileum DR with Nor-BNI” value is 1.39 ± 0.14, the “Guinea Pig Ileum Ke of Nor-BNI” value stood at 54.42 ± 19.6 and the “Guinea Pig Ileum Ratio (Nor-BNI)” value was determined as 0.001. The affinity on delta receptors, expressed as Ki, was 308 nM. In addition, the “substitution for morphine / withdrawal, in words” value in series [5] was “did not substitute for morphine, nor did it exacerbate withdrawal”. In the series with kappa3 receptors, the “affinity to kappa3 receptors in words” value was “greater affinity than that of morphine”; the “selectivity for kappa3 receptors, greater than morphine” value is recorded as 2.2 fold; the inhibition constant (Ki) came to 5.5 nM.
For `CN1CC[C@]23c4c5ccc(O)c4O[C@H]2[C@@H](OS(=O)(=O)O)C=C[C@H]3[C@H]1C5` [NIDA # 20,266, Morphine-6-O-Sulfate], in the series on nociception (tail-flick) [2], the “analgesic activity in words” value was “maximal analgesic effect similar to morphine” and the “duration of maximal analgesic effect” value is reported as “over 3 hours”. Further, in series [3], the “Guinea pig ileum, result in words” value is listed as “inhibited electrically induced twitches” and the IC50 was 67 ± 12.1 nM. The “duration of maximal analgesia” value with nociception (tail-flick) [1] (setting [7]) amounted to 70 min. In addition, on mu opioid receptors, the “affinity to mu receptors in words” value is “greater affinity than that of morphine” and the “selectivity for mu-receptors, greater than morphine” value is 3 fold. Also, in the series with mu receptors, the “Guinea Pig Ileum DR with CTAP” value is reported as 5.00 ± 2.16, the “Guinea Pig Ileum Ke of CTAP” value is given as 29.18 ± 15.7 and the “Guinea Pig Ileum Ratio (CTAP)” value is 0.663. The molecule also showed an IC50 with κ2 sites greater than 10 µM. Moreover, on kappa1 sites, the affinity corresponds to a Ki of 1190 nM and the “binding to kappa1 sites in words” value is on record as “weakly”. At kappa receptors, the “Guinea Pig Ileum DR with Nor-BNI” value came out at 0.87 ± 0.06. Further, on delta receptors, the Ki was determined as 18 nM and the “affinity to delta receptors in words” value was “greater affinity than that of morphine”. In the series on kappa3 receptors, the “affinity to kappa3 receptors in words” value was “greater affinity than that of morphine”; the “selectivity for kappa3 receptors, greater than morphine” value came to 2.2 fold; the Ki came to 6.3 nM.
With `CC(=O)Oc1ccc2c3c1O[C@H]1[C@@H](OS(=O)(=O)[O-])C=C[C@H]4[C@@H](C2)[N+](C)(C)CC[C@@]341` [NIDA # 20,269, 3-O-Acetyl-N-methylmorphinium-6-O-sulfate], the “analgesic activity in words” value with nociception (tail-flick) [2] (listed as MM3A6S) was “devoid of any analgesic properties; also recorded: inactive”. Further, in [3], the “Guinea pig ileum, result in words” value is “no activity; also recorded: lacks activity”. Further, the “Mouse vas deferens, result in words” value in [4] is given as “lacks activity”. The inhibition at 200 µM in series [4] (setting [6]) worked out at 20%. Further, the half-inhibitory concentration (IC50) in the series with κ2 sites is greater than 10 µM. The Ki on delta receptors is 842 nM; on kappa3 receptors it was 400 nM.
Regarding `CN1CC[C@]23c4c5ccc(OC(=O)C(C)(C)C)c4O[C@H]2[C@@H](OS(=O)(=O)O)C=C[C@H]3[C@H]1C5` [NIDA # 20,272, 3-O-Pivaloylmorphine-6-O-sulfate], in [3], the half-inhibitory concentration (IC50) is 69.3 ± 25 nM. Also, the inhibition at 20 µM in series [4] (setting [6]) is 26.2%. Also, in the series with mu receptors, the “Guinea Pig Ileum DR with CTAP” value worked out at 4.50 ± 0.14 and the “Guinea Pig Ileum Ratio (CTAP)” value turned out to be 0.676. This molecule showed an IC50 in the series with κ2 sites greater than 10 µM. On kappa1 sites, this molecule showed a Ki of 1940 nM. On kappa receptors, the “Guinea Pig Ileum DR with Nor-BNI” value turned out to be 1.13 ± 0.01, the “Guinea Pig Ileum Ke of Nor-BNI” value was 154.77 ± 16.8 and the “Guinea Pig Ileum Ratio (Nor-BNI)” value is on record as 0.0004. Also, on delta receptors, the Ki turned out to be 15.2 nM. Further, the Ki at kappa3 receptors worked out at 11.2 nM.
Consider `CN1CC[C@]23c4c5ccc(OC(=O)c6ccccc6)c4O[C@H]2[C@@H](OS(=O)(=O)O)C=C[C@H]3[C@H]1C5` [NIDA # 20,273, 3-O-Benzoylmorphine-6-O-sulfate], for which the “analgesic activity in words” value in the series on nociception (tail-flick) [2] (listed as M3B6S) was “gradual onset of weak analgesia; also recorded: inactive”. The “maximum analgesia, % of maximal analgesia” value in the series on nociception (tail-flick) [2] (equimolar dose, over 4 hours) was found to be 27%. Also, in [3], the “Guinea pig ileum, result in words” value is “inhibited electrically induced twitches” and the IC50 was found to be 658 ± 130 nM. Further, the inhibition at 100 µM in series [4] (setting [6]) was 29.4%. Besides, in the series with mu receptors, the “Guinea Pig Ileum DR with CTAP” value amounted to 3.68 ± 0.27, the “Guinea Pig Ileum Ke of CTAP” value worked out at 34.92 ± 3.22 and the “Guinea Pig Ileum Ratio (CTAP)” value is reported as 0.554. Further, the IC50 with κ2 sites was greater than 10 µM. Moreover, on kappa receptors, the “Guinea Pig Ileum DR with Nor-BNI” value is 1.31 ± 0.13, the “Guinea Pig Ileum Ke of Nor-BNI” value was 70.73 ± 29.13 and the “Guinea Pig Ileum Ratio (Nor-BNI)” value is on record as 0.001. This molecule also came in with a Ki at delta receptors of 600 nM. Besides, at kappa3 receptors, the inhibitory constant (Ki) was 513 nM.
A word on the Kb: it is the affinity of an antagonist, worked out from how it opposes an agonist. On to `C=CCN1CC[C@]23c4c5ccc(O)c4O[C@H]2/C(=N/NC(=O)c2ccccc2)CC[C@@]3(O)[C@H]1C5` [NalBzoH, naloxone benzoylhydrazone], for which the Kb at δ opioid receptor and on κ opioid receptor was 17.4 nM each time. For the same molecule, in the series with κ2 sites, it took 0.0665 µM to reach half-maximal inhibition (IC50). For the same molecule, the Ki at kappa1 sites came to 0.4 nM; at delta receptors, 1.4 nM; at kappa3 receptors it was 0.3 nM.
On to `Oc1ccc2c3c1O[C@H]1c4[nH]c5ccccc5c4C[C@@]4(O)[C@@H](C2)N(CC2CC2)CC[C@]314` [Naltrindole], for which the results for the Kb on δ opioid receptor and at κ opioid receptor were 0.012 nM and 24.5 nM, respectively. For the same molecule, in the series with κ2 sites, half-maximal inhibition (IC50) required 0.539 µM. The Ki was found to be 7.8 nM at kappa1 sites and 12.4 nM at kappa3 receptors.

Values taken from patent US6403602B1 (priority 1997, dated 2002).
